{"source": "patent US20240050408A1", "about": "“USE OF MGLUR5 ANTAGONISTS FOR TREATING AMPHETAMINE ADDICTION” (NOVARTIS AG, priority 2020, published 2024)", "type_in_all_cases": "in vivo, human", "key": {"[1]": {"tested_on": "patients with Cocaine Use Disorder (CUD)", "assay": "Phase 2 trial: anxiety (STAI) and depressive symptoms (BDI-II)", "conditions": "for anxiety symptoms by STAI: difference vs placebo not statistically significant (P=0.144 S-Anxiety, P=0.425 T-Anxiety); for depressive symptoms by BDI: difference vs placebo not statistically significant (P=0.696 BDI-II)", "procedure": "(§1) This study was conducted in patients with CUD and consisted of about a 21-day screening period followed by a 7-day baseline period, a 98-day outpatient treatment period, and an end of study visit evaluation about 14 days after the last study drug administration ([…]. A). Study treatment was taken twice daily (separated by about 12-hour intervals) with food. For patients in the mavoglurant arm [mavoglurant (free form) provided as modified release formulation (e.g. in WO2014/199316)], an uptitration regimen was performed for 14 days (50 mg b.i.d. from Days 1 to 7 and 100 mg b.i.d from Days 8 to 14) and was followed by 200 mg b.i.d for 84 days.\nPatient Reported Outcome included: • 1. The TLFB cocaine: is a cocaine assessment method that obtains estimates of daily cocaine intake and has been evaluated with clinical and nonclinical populations. Using a calendar, people provide retrospective estimates of their daily cocaine use over a specified time period that can vary up to 12 months from the interview date. Several memory aids can be used to enhance recall (e.g., calendar; key dates serve as anchors for reporting cocaine use). […] The method is recommended for use when relatively precise estimates of cocaine use are necessary, especially when a complete use pre-posttreatment). Clinically, the TLFB can be used to provide feedback about one's cocaine consumption in an effort to increase a client's motivation to change. • 2. The TLFB alcohol: is a drinking assessment method that obtains estimates of daily drinking and has been evaluated with clinical and nonclinical populations. Using a calendar, people provide retrospective estimates of their daily drinking over a specified time period that can vary up to 12 months from the interview date. Several memory aids can be used to enhance recall (e.g., calendar; key dates serve as anchors for reporting drinking; standard drink conversion). […] The method is recommended for use when relatively precise estimates of drinking are necessary, especially when a complete picture of drinking days (i.e., high- and low-risk days) is needed (evaluating drinking pre/post-treatment). Clinically, the TLFB can be used to provide feedback about one's drinking in an effort to increase a client's motivation to change. Overall, the Alcohol TLFB method provides a relatively accurate portrayal of drinking, and has both clinical and research utility. • 3. The BDI-II: is instrument endorsed by the National Institute for Health and Clinical Excellence for use in primary care in measuring baseline depression severity and responsiveness to treatment. • 4. The STAI: is an assessment tool for measuring the presence and severity of current symptoms of anxiety and a generalized propensity to be anxious. […]"}, "[2]": {"tested_on": "patients with Cocaine Use Disorder (CUD)", "assay": "Phase 2 trial: quantitative urine measurement of benzoylecgonine (BE)", "conditions": "98-day administration, P=0.025", "procedure": "as §1\nThe primary endpoint was the proportion of cocaine use days during the treatment period, assessed by timeline followback [TLFB] cocaine self-report report. The secondary endpoints included a weekly urine analysis for a log-transformed quantitative measure of cocaine metabolite benzoylecgonine (BE), safety assessments (clinical parameters, suicidal ideation, adverse events [AE] and serious adverse events [SAE] at every visit), and pre- and post-dose levels of mavoglurant in the plasma. […]\nTwo urine samples per week provided a log-transformed quantitative measure of BE (cocaine's metabolite). […]"}, "[3]": {"tested_on": "patients with Cocaine Use Disorder (CUD)", "assay": "Phase 2 trial: abstinence in the last weeks of treatment (TLFB and negative urine BE)", "conditions": "self-report (TLFB) and negative urine BE; placebo 16.7%; P=0.040", "procedure": "as §1\nA subject was considered abstinent the last x weeks of treatment if they completed the 14-week treatment period and were abstinent the last x weeks (with x=1, 2, 3. . . . , 14).\nA subject was considered abstinent the last x weeks of treatment if they completed the 14-week treatment period and were abstinent the last x weeks (with x=1, 2, 3. . . . , 14). […] Binary response variables based on abstinence were calculated.\nThis analysis was added in order to inform on abstinence rates as this is an important endpoint in Phase III CUD studies. Binary response variables based on abstinence were calculated."}, "[4]": {"tested_on": "patients with Cocaine Use Disorder (CUD)", "assay": "Phase 2 trial: Clinical Global Impression (CGI) improvement", "conditions": "P<0.001", "procedure": "as §1\nThe primary endpoint was the proportion of cocaine use days during the treatment period, assessed by timeline followback [TLFB] cocaine self-report report. The secondary endpoints included a weekly urine analysis for a log-transformed quantitative measure of cocaine metabolite benzoylecgonine (BE), safety assessments (clinical parameters, suicidal ideation, adverse events [AE] and serious adverse events [SAE] at every visit), and pre- and post-dose levels of mavoglurant in the plasma. Exploratory endpoints included Clinical Global Impression (CGI; 2 components: CGI-S [rated illness severity], CGI-I [rated change from baseline]).\nObserver Reported Outcome: • 1. […]"}}}
{"compound": "COC(=O)N1CC[C@@H]2[C@H]1CCC[C@@]2(O)C#Cc1cccc(C)c1", "note": "[mavoglurant, (-)-(3aR,4S,7aR)-4-Hydroxy-4-m-tolylethynyl-octahydro-indole-1-carboxylic acid methyl ester]", "values": [{"measurement": "anxiety symptoms by STAI", "setting": "[1]", "result": "reduced nonsignificantly"}, {"measurement": "anxiety symptoms by STAI", "setting": "[1]; listed as Mavoglurant", "result": "reduced anxiety and depressive symptoms"}, {"measurement": "depressive symptoms by BDI", "setting": "[1]", "result": "reduced nonsignificantly"}, {"measurement": "depressive symptoms by BDI", "setting": "[1]; listed as Mavoglurant", "result": "reduced anxiety and depressive symptoms"}, {"measurement": "cocaine consumption as assessed by urine benzoylecgonine (BE) vs placebo", "setting": "[2]", "result": "significantly lower levels of BE in urine"}, {"measurement": "cocaine consumption as assessed by urine benzoylecgonine (BE) vs placebo", "setting": "[2]; listed as Mavoglurant", "result": "significantly reduced cocaine consumption"}, {"measurement": "proportion of patients with cocaine abstinence in the last 3 weeks of the study", "setting": "[3]", "result": 41.4, "unit": "%"}, {"measurement": "clinical improvement by CGI vs placebo (result in words)", "setting": "[4]; CGI-I improvement from baseline", "result": "significantly enhanced clinical improvement"}, {"measurement": "CGI 'very much' and 'much' improved, patients", "setting": "[4]; Day 98, placebo 46.6%", "result": 90.9, "unit": "%"}]}
